Experimental data published in US20250367173A1, “ECTONUCLEOTIDE PYROPHOSPHATASE-PHOSPHODIESTERASE-1 INHIBITORS AND PHARMACEUTICAL COMPOSITIONS COMPRISING THE SAME” (LigaChem Biosciences Inc., priority 2022, published 2025).

What was measured:
ENPP-1 [1] = molecular target: T1, ENPP-1 (Homo sapiens, UniProt P22413); assay: ENPP-1 enzyme assay with cGAMP substrate; type: biochemical; conditions: 200 pM ENPP-1, 10 μM substrate 2′3′-cGAMP, pH 7.4, 37° C., 30 minutes, Transcreener AMP2/GMP2 kit; average IC50
T1 construct: purchased Biovendor RD172124100
T1 sequence (P22413 1-925): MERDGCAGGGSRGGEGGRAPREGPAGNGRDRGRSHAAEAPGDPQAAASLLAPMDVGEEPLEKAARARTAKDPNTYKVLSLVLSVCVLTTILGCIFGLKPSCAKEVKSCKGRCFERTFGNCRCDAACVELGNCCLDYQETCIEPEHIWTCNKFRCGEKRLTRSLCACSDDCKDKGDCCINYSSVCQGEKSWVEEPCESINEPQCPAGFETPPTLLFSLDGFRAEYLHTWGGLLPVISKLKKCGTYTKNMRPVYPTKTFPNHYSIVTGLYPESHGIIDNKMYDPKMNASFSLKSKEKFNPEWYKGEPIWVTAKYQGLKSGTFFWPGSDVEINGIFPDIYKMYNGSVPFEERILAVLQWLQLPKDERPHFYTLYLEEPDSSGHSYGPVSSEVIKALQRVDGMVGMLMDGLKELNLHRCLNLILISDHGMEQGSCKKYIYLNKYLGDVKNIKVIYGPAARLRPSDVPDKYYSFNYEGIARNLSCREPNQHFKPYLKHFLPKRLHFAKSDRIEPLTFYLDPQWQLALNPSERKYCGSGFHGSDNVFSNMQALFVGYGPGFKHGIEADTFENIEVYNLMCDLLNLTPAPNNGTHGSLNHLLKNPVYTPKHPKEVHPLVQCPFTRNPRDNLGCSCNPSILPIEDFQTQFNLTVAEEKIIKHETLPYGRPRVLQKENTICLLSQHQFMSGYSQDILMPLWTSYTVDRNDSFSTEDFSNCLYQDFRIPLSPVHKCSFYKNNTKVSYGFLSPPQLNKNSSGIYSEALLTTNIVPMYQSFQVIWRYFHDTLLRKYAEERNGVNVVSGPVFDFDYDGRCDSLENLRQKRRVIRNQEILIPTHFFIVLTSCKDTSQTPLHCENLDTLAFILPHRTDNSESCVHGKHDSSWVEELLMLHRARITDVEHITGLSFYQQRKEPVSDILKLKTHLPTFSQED
Description: 2′3′-cGAMP is a natural substrate specifically hydrolyzed by ENPP-1, and produces 5′-adenosine monophosphate (AMP) and 5′-guanosine monophosphate (GMP). AMP and GMP produced from the reaction are monitored for ENPP-1 enzyme activity through an AMP^2/GMP^2 ENPP-1 Assay kit (Bellbrook Labs, catalog number 3015).
First, the reaction mixture contains 25 mM Tris-HCl (pH 7.4), 5 mM MgCl2, 0.01% Brij-35, and 1% DMSO. Serially diluted ENPP-1 inhibitors (test compound concentrations ranging from 10 μM to 0.5 nM) are reacted with 200 pM ENPP-1 (Biovendor, catalog number RD172124100) and 10 μM substrate 2′3′-cGAMP at 37° C. for 30 minutes. All assays include a DMSO control without ENPP-1 inhibitor that provides maximal AMP and GMP production. After 30 minutes of this reaction, AMP and GMP production is detected as a measure of ENPP-1 enzymatic activity using the Transcreener® AMP^2/GMP^2 ENPP-1 Assay kit. The detection reagent is a reagent containing 16 nM AMP^2/GMP^2 Antibody-Tb, 25 mM Tris-HCl and 60.1 nM AMP/GMP HiLyte647 Tracer, which is added by 5 μl, mixed well, and incubated at 25° C. for 2 hours.
(§1) The […] signal is measured using a SPARK Cyto plate reader (Tecan). Inhibition (%) is calculated using the following formula: (Max 615:665 ratio-615:665 ratio)/Max 615:665 ratio×100%. % residual ENPP-1 enzyme activity versus IC50 values for ENPP-1 inhibitor concentrations were determined by fitting inhibition curves using the 4-parameter method of GraphPad Prism® software [GraphPad version 9.3.1 for Windows, GraphPad Software, La Jolla California USA, www.graphpad.com].

ENPP-1 [2] = molecular target: T1, ENPP-1; assay: ENPP-1 enzyme assay with pNP-TMP substrate; type: biochemical; conditions: 12.5 ng ENPP-1, 720 μM substrate pNP-TMP, pH 9.0, 37° C., 60 minutes, absorbance 405 nm; average IC50
Description: In order to measure the ENPP-1 inhibitory activity of the compounds according to the present disclosure, the following tests were performed.
ENPP-1 hydrolyzes a variety of substrates, including phosphodiester bonds of nucleotides and nucleotide sugars and pyrophosphate bonds of nucleotides and nucleotide sugars. p-Nitrophenyl 5′-thymidine monophosphate (p-Nph-5′-TMP) is an artificial substrate for 5′-adenosine monophosphate (AMP), which is hydrolyzed by the human recombinant ENPP-1 enzyme. In the above reaction, ENPP-1 enzymatic activity is monitored through the formation of yellow p-nitrophenolate, which absorbs at 405 nm.
First, the reaction mixture contains 100 mM Tris-HCl (pH 9.0), 150 mM NaCl, […], and 1% DMSO. Serially diluted ENPP-1 inhibitors (test compound concentrations ranging from 10 μM to 0.5 nM) are reacted with 12.5 ng of ENPP-1 (Biovendor, catalog number RD172124100) and 720 μM substrate pNP-TMP at 37° C. for 60 minutes. All assays include a DMSO control without ENPP-1 inhibitor that gives maximum absorbance.
as §1, with “After 60 minutes of this reaction, the” for “The”, “an Epoch™ Microplate Spectrophotometer (BioTek Instruments Inc.).” for “a SPARK Cyto plate reader (Tecan).”, “Sample OD405 nm/Max OD405 nm×100%.” for “(Max 615:665 ratio-615:665 ratio)/Max 615:665 ratio×100%.”

| Structure (SMILES) | IC50 (ENPP-1 [1]) | IC50 (ENPP-1 [2]) |
| --- | --- | --- |
| COc1ccc2c(c1)c1c(n2Cc2ccc(S(N)(=O)=O)cc2)CCCN1 [Compound 38, 4-((8-methoxy-1,2,3,4-tetrahydro-5H-pyrido[3,2-b]indol-5-yl)methyl)benzenesulfonamide] | < 1000 nM | < 1000 nM |
| COc1ccc2c(c1)c1c(n2Cc2ccc(S(N)(=O)=O)cc2)CCNC1=O [Compound 41, 4-((8-methoxy-1-oxo-1,2,3,4-tetrahydro-5H-pyrido[4,3-b]indol-5-yl)methyl)benzene sulfonamide] | 1000 to 10000 nM | < 1000 nM |
| COc1ccc2c3c(n(Cc4ccc(S(N)(=O)=O)cc4)c2c1)CCNC3=O [Compound 42, 4-((7-methoxy-1-oxo-1,2,3,4-tetrahydro-5H-pyrido[4,3-b]indol-5-yl)methyl)benzene sulfonamide] | < 1000 nM | < 1000 nM |
| COc1ccc2c3c(=O)[nH]ccc3n(Cc3ccc(S(N)(=O)=O)cc3)c2c1 [Compound 43, 4-((7-methoxy-1-oxo-1,2-dihydro-5H-pyrido[4,3-b]indol-5-yl)methyl)benzenesulfonamide] | 1000 to 10000 nM | < 1000 nM |
| COc1ccc2c(c1)c1c(=O)[nH]ncc1n2Cc1ccc(S(N)(=O)=O)cc1 [Compound 44, 4-((8-methoxy-1-oxo-1,2-dihydro-5H-pyridazino[4,5-b]indol-5-yl)methyl)benzene sulfonamide] | < 1000 nM | < 1000 nM |
| COc1ccc2c3c(=O)[nH]ncc3n(Cc3ccc(S(N)(=O)=O)cc3)c2c1 [Compound 45, 4-((7-methoxy-1-oxo-1,2-dihydro-5H-pyridazino[4,5-b]indol-5-yl)methyl)benzene sulfonamide] | < 1000 nM | < 1000 nM |
| COc1ccc2c3c(=O)[nH]ncc3n(Cc3ccc(S(C)(=N)=O)cc3)c2c1 (stereo not drawn) [Compound 46, 7-methoxy-5-(4-(S-methylsulfonimidoyl)benzyl)-2,5-dihydro-1H-pyridazino[4,5-b]indol-1-one] | < 1000 nM | < 1000 nM |
| COc1ccc2c3cnncc3n(Cc3ccc(S(N)(=O)=O)cc3)c2c1 [Compound 47, 4-((7-methoxy-5H-pyridazino[4,5-b]indol-5-yl)methyl)benzenesulfonamide] | 1000 to 10000 nM | < 1000 nM |
| COc1ccc2c3cncnc3n(Cc3ccc(S(N)(=O)=O)cc3)c2c1 [Compound 48, 4-((7-methoxy-9H-pyrimido[4,5-b]indol-9-yl)methyl)benzenesulfonamide] | 1000 to 10000 nM | < 1000 nM |
| COc1ccc2c(c1)c1cccnc1n2Cc1ccc(S(N)(=O)=O)cc1 [Compound 49, 4-((6-methoxy-9H-pyrido[2,3-b]indol-9-yl)methyl)benzenesulfonamide] | 1000 to 10000 nM | < 1000 nM |
| COc1ccc2c(c1)c1ncncc1n2Cc1ccc(S(N)(=O)=O)cc1 [Compound 51, 4-((8-methoxy-5H-pyrimido[5,4-b]indol-5-yl)methyl)benzenesulfonamide] | < 1000 nM | < 1000 nM |
| COc1ccc2c3cnccc3n(Cc3ccc(S(N)(=O)=O)cc3)c2c1 [Compound 52, 4-((7-methoxy-5H-pyrido[4,3-b]indol-5-yl)methyl)benzenesulfonamide] | 1000 to 10000 nM | < 1000 nM |
| COc1ccc2c3ncccc3n(Cc3ccc(S(N)(=O)=O)cc3)c2c1 [Compound 53, 4-((7-methoxy-5H-pyrido[3,2-b]indol-5-yl)methyl)benzenesulfonamide] | < 1000 nM | < 1000 nM |
| COc1cc2c3ncccc3n(Cc3ccc(P(=O)(O)O)cc3)c2cc1F [Compound 57, (4-((7-fluoro-8-methoxy-5H-pyrido[3,2-b]indol-5-yl)methyl)phenyl)phosphonic acid] | < 1000 nM | < 1000 nM |
| COc1ccc2c(c1)c1ncccc1n2Cc1ccc(C(F)(F)P(=O)(O)O)cc1 [Compound 58, (difluoro (4-((8-methoxy-5H-pyrido[3,2-b]indol-5-yl)methyl)phenyl)methyl)phosphonic acid] | 1000 to 10000 nM | < 1000 nM |
